Inconclusive results and toxic doses are left out. How the source made its calls: active means survival T/C of 150% or more; inactive means T/C below 125% in these data.
Test system: BDF1 mice, P388 leukemia ip, median survival T/C
Assay: NCI In Vivo Anticancer Drug Screen. Data for tumor model P388 Leukemia (intraperitoneal) in B6D2F1 (BDF1) mice
Conditions: endpoint: median survival time, higher = longer survival
How it was run: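 Read-out is survival of treated animals expressed relative to the vehicle group, as a T/C ratio.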

Measured: T/C

CCc1nc(N)nc(N)c1-c1ccc(Cl)cc1
inactive: dose: 2.0 mg/kg/injection, schedule: Q03HX008 (ip), vehicle: Klucel (hydroxypropylcellulose) (HPC) 100 % of control | dose: 2.0 mg/kg/injection, schedule: Q03HX016 (ip), vehicle: Klucel (hydroxypropylcellulose) (HPC) 91 % of control | dose: 2.0 mg/kg/injection, schedule: Q03HX024 (ip), vehicle: Klucel (hydroxypropylcellulose) (HPC) 91 % of control | dose: 4.0 mg/kg/injection, schedule: Q01DX009 (ip), vehicle: Klucel (hydroxypropylcellulose) (HPC) 95 % of control | dose: 4.0 mg/kg/injection, schedule: Q01DX009 (sc), vehicle: Klucel (hydroxypropylcellulose) (HPC) 100 % of control | dose: 4.0 mg/kg/injection, schedule: Q03HX008 (ip), vehicle: Klucel (hydroxypropylcellulose) (HPC) 95 % of control | dose: 4.0 mg/kg/injection, schedule: Q03HX016 (ip), vehicle: Klucel (hydroxypropylcellulose) (HPC) 100 % of control | dose: 4.0 mg/kg/injection, schedule: Q03HX024 (ip), vehicle: Klucel (hydroxypropylcellulose) (HPC) 91 % of control | dose: 8.0 mg/kg/injection, schedule: Q01DX009 (ip), vehicle: Klucel (hydroxypropylcellulose) (HPC) 91 % of control | dose: 8.0 mg/kg/injection, schedule: Q01DX009 (sc), vehicle: Klucel (hydroxypropylcellulose) (HPC) 100 % of control | dose: 8.0 mg/kg/injection, schedule: Q01DX010 (ip), vehicle: saline 100 % of control | dose: 8.0 mg/kg/injection, schedule: Q03HX008 (ip), vehicle: Klucel (hydroxypropylcellulose) (HPC) 100 % of control | dose: 8.0 mg/kg/injection, schedule: Q03HX016 (ip), vehicle: Klucel (hydroxypropylcellulose) (HPC) 91 % of control | dose: 8.0 mg/kg/injection, schedule: Q03HX024 (ip), vehicle: Klucel (hydroxypropylcellulose) (HPC) 95 % of control | dose: 16.0 mg/kg/injection, schedule: Q01DX001 (ip), vehicle: Klucel (hydroxypropylcellulose) (HPC) 100 % of control | dose: 16.0 mg/kg/injection, schedule: Q01DX001 (oral), vehicle: Klucel (hydroxypropylcellulose) (HPC) 100 % of control | dose: 16.0 mg/kg/injection, schedule: Q01DX001 (sc), vehicle: Klucel (hydroxypropylcellulose) (HPC) 100 % of control | dose: 16.0 mg/kg/injection, schedule: Q01DX009 (ip), vehicle: Klucel (hydroxypropylcellulose) (HPC) 91 % of control | dose: 16.0 mg/kg/injection, schedule: Q01DX009 (oral), vehicle: Klucel (hydroxypropylcellulose) (HPC) 104 % of control | dose: 16.0 mg/kg/injection, schedule: Q01DX009 (sc), vehicle: Klucel (hydroxypropylcellulose) (HPC) 100 % of control | dose: 16.0 mg/kg/injection, schedule: Q01DX010 (ip), vehicle: saline 95 % of control | dose: 16.0 mg/kg/injection, schedule: Q03HX008 (ip), vehicle: Klucel (hydroxypropylcellulose) (HPC) 91 % of control | dose: 16.0 mg/kg/injection, schedule: Q03HX016 (ip), vehicle: Klucel (hydroxypropylcellulose) (HPC) 100 % of control | dose: 16.0 mg/kg/injection, schedule: Q03HX024 (ip), vehicle: Klucel (hydroxypropylcellulose) (HPC) 100 % of control | dose: 16.0 mg/kg/injection, schedule: Q04DX003 (ip), vehicle: Klucel (hydroxypropylcellulose) (HPC) 100 % of control | dose: 16.0 mg/kg/injection, schedule: Q08DX002 (ip), vehicle: Klucel (hydroxypropylcellulose) (HPC) 100 % of control | dose: 32.0 mg/kg/injection, schedule: Q01DX001 (ip), vehicle: Klucel (hydroxypropylcellulose) (HPC) 100 % of control | dose: 32.0 mg/kg/injection, schedule: Q01DX001 (oral), vehicle: Klucel (hydroxypropylcellulose) (HPC) 90 % of control | dose: 32.0 mg/kg/injection, schedule: Q01DX001 (sc), vehicle: Klucel (hydroxypropylcellulose) (HPC) 104 % of control | dose: 32.0 mg/kg/injection, schedule: Q01DX009 (ip), vehicle: Klucel (hydroxypropylcellulose) (HPC) 95 % of control | dose: 32.0 mg/kg/injection, schedule: Q01DX009 (sc), vehicle: Klucel (hydroxypropylcellulose) (HPC) 100 % of control | dose: 32.0 mg/kg/injection, schedule: Q01DX010 (ip), vehicle: saline 90 % of control | dose: 32.0 mg/kg/injection, schedule: Q04DX003 (ip), vehicle: Klucel (hydroxypropylcellulose) (HPC) 100 % of control | dose: 32.0 mg/kg/injection, schedule: Q08DX002 (ip), vehicle: Klucel (hydroxypropylcellulose) (HPC) 95 % of control | dose: 64.0 mg/kg/injection, schedule: Q01DX001 (ip), vehicle: Klucel (hydroxypropylcellulose) (HPC) 100 % of control | dose: 64.0 mg/kg/injection, schedule: Q01DX001 (oral), vehicle: Klucel (hydroxypropylcellulose) (HPC) 104 % of control | dose: 64.0 mg/kg/injection, schedule: Q01DX001 (sc), vehicle: Klucel (hydroxypropylcellulose) (HPC) 109 % of control | dose: 64.0 mg/kg/injection, schedule: Q01DX009 (ip), vehicle: Klucel (hydroxypropylcellulose) (HPC) 116 % of control | dose: 64.0 mg/kg/injection, schedule: Q01DX009 (sc), vehicle: Klucel (hydroxypropylcellulose) (HPC) 113 % of control | dose: 64.0 mg/kg/injection, schedule: Q01DX010 (ip), vehicle: saline 90 % of control | dose: 64.0 mg/kg/injection, schedule: Q04DX003 (ip), vehicle: Klucel (hydroxypropylcellulose) (HPC) 100 % of control | dose: 64.0 mg/kg/injection, schedule: Q08DX002 (ip), vehicle: Klucel (hydroxypropylcellulose) (HPC) 91 % of control | dose: 128.0 mg/kg/injection, schedule: Q01DX001 (ip), vehicle: Klucel (hydroxypropylcellulose) (HPC) 100 % of control | dose: 128.0 mg/kg/injection, schedule: Q01DX001 (oral), vehicle: Klucel (hydroxypropylcellulose) (HPC) 100 % of control | dose: 128.0 mg/kg/injection, schedule: Q01DX001 (sc), vehicle: Klucel (hydroxypropylcellulose) (HPC) 100 % of control | dose: 128.0 mg/kg/injection, schedule: Q04DX003 (ip), vehicle: Klucel (hydroxypropylcellulose) (HPC) 100 % of control | dose: 128.0 mg/kg/injection, schedule: Q08DX002 (ip), vehicle: Klucel (hydroxypropylcellulose) (HPC) 100 % of control

— PubChem BioAssay AID328 (DTP/NCI, 2004)
